Tests used:
[1] = tested on: CD34+-derived cells; experiment: DNA microarray transcriptional profiling; format: cell-based, human
Procedure: Total RNA was extracted from cells using trizol and isolated by RNeasy (Qiagen) according to manufacturer's protocol. Total RNA was amplified and converted to cDNA using WT-Ovation Pico kit (NuGen) and converted to ST-cDNA, fragmented and biotinfunctionalized using WT-Ovation Exon Mudule (NuGen). Hybridization cocktails were prepared at 45.4, 15.1 and 7.6 ng/μl ST-cDNA and mixed with Eukaryotic Hybridization Controls (GeneChip) at proportional concentrations. Each sample was interrogated by sequential hybridization, rinse and scan cycles on a single Human Gene 1.0 ST DNA microarray (Affymetrix), from low to high concentration, and followed by two rinse-scan cycles in which no sample was added. In each experiment the scanned intensities that were obtained from all samples, five scans per array, were mutually RMA-summarized to transcription clusters gene levels. Log-base-2 fold changes were calculated for each scan separately relative to the mean Bleb-treated and non-treated CD34^+ and CD34^− intensities, gene by gene, and the average and standard deviation values (SD) were calculated across scans. Heat maps of selected genes summarize data from technical and biological replica. Average gene-expression fold changes±STD of HSC, MPP and CPP samples are shown in white. Log-base-2 fold changes of Bleb-treated and non-treated CD34^+ and CD34^− were averaged from two biologically independent experiments and are shown±SD. The particular fold-changes are color coded on a logarithmic scale that is defined per each heat map. Color-coded gene symbols represent the absolute gene expression levels of the biologically-replicated averages of CD34^+ non-treated intensities. Gene expression levels are coded <=5 (green) to >=10 (red) on a log-base-2 scale. Samples and genes were clustered by Pearson Correlation (MeV). Dendograms represent the correlative proximity of log-base-2 gene expression fold changes. Mean gene expression levels were calculated by averaging across five array scans. Log-base-2 gene expression fold changes were calculated relative to the mean Bleb-treated and non-treated CD34^+ and CD34^− intensities, gene by gene.

[2] = tested on: MKs; experiment: In vitro platelet generation from MKs; format: cell-based, human; conditions: 20 μM for 3 d, then 3 d of no drug
Procedure: For platelet-activation assays, platelet-sided fraction isolated from either MK culture or NSG blood was resuspended in Tyrode's buffer supplemented with Mg^2+ and Ca^2+, and incubated with indicated agonists for 15 min at 37° C., followed by staining with FITC-conjugated anti-human P-selectin or PAC-1 antibody (BD Bioscience), APC-conjugated anti-human CD41, and in the case of xenograft samples, PE-conjugated anti-mouse CD41 for 15 min at room temperature, followed by fixation with 1.5% paraformaldehyde. Antibody-stained samples were then analyzed by flow cytometry. Platelet number was evaluated by mixing each sample with a defined number (˜10,000 beads per sample) of APC-conjugated beads (BD Bioscience). The number of platelets per sample was evaluated by: number of CD41^+ events/number of APC-bead events multiplied by total known number of APC-bead added per sample.
Transplantation of uncultured human cord-blood CD34^+ cells in immuno-deficient nonobese diabetic (NOD)/SCID mice has been shown previously to yield sustained generation of human platelets (Salles et al., 2009, Blood, 114:5044-5051), but the intravenous delivery route used to date requires a large number of cells for homing and engraftment. Intrabone marrow transplantation was instead used here to more rapidly expose injected cells to the marrow microenvironment per FIG. 1A. […]

[3] = tested on: BM CD34+-derived cells; experiment: Live cell imaging of cell division; format: cell-based, human
Procedure: At least 20,000 BM CD34^+-derived cells were put into Ibidi μ-slide VI (Ibidi GmbH) in cell culture medium. Analysis was done in an insulated chamber maintained at 37° C., 5% CO2. A series of images were collected every 5 min for 18 to ˜24 h with an Olympus IX70 inverted microscope with 300 W Xenon lamp illumination using 10× or 20× objectives under bright field. Image stacks were further analyzed by ImageJ to analyze cell division with or without blebbistatin treatment.

[4] = tested on: human-CD41+ platelets in NSG mice; experiment: In vivo human platelet generation after intratibial transplantation into NSG mice; design: species or system mouse
Procedure: Eight- to 10-wk-old nonobese diabetic (NOD)/SCID/IL-2Rγ−/− (NSG) mice were obtained and maintained in-house at the Penn Xenograft Core Facility. Before transplantation (˜24 h), mice received a sublethal dose of 320 cGy total body irradiation. Cultured human CD34^+-derived cells (0.5−3×10^5 uncultured BM CD34^+ equivalent) with or without drug treatment was suspended in 20 μL PBS and injected directly into the tibia. Peripheral blood (PB) was then obtained from the transplanted mice via retroorbital bleeding and human platelet quantification was done at indicated times. To calculate human platelet in NSG circulation, the total platelet concentration count was done by Hemavet (Drew Scientific), and 2 μL of PB per staining sample was washed in the presence of PGE1 inhibitor (Sigma) and resuspended in PBS. Cells were incubated with mouse Fc-blocker (BD Biosciences) for 5 min, followed by addition of mouse anti-human CD41-FITC and rat anti-mouse CD41-PE antibodies (eBioscience). After 30 min incubation at room temperature, cells were fixed by addition of 0.5% paraformaldehyde and analyzed by flow cytometry within 2 h. Platelets were gated on based on forward and side scatters, and at least 50,000 events were acquired. Human platelet concentration was obtained by multiplying the total platelet count by the percentage of human CD41-FITC of the total CD41^+ platelets (mouse plus human). Microscopic determination and isotype control with mixing known number of human platelets indicate the threshold detection limit of 0.001%. The total human platelet number in each transplanted NSG mouse was estimated by assuming that the average total mouse blood is ˜1.5 mL (Riches et al., 1973, J Physiol, 228:279-284). All animal experiments were performed in accordance with institutional guidelines approved by the ethical committee from the University of Pennsylvania.

[5] = tested on: CD34+-derived cells; experiment: Apoptosis by cleaved caspase-3 intracellular flow cytometry and Annexin-V; format: cell-based, human; conditions: cleaved caspase-3 and Annexin-V+
Procedure: Cells were fixed with 4% paraformaldehyde in PBS for 10 min, washed with PBS and resuspended in 0.1% saponin in HBSS (staining medium). The samples were then stained with antibodies against cytoplasmic antigens, including NMM-IIA (Sigma), NMM-IIB, phospho-NMM-IIA and caspase-3 (all from Cell Signaling Technology) for 30 min at room temperature. In some cases, cells were concurrently stained with PE anti-CD34 or anti-human CD38 for subpopulation analysis. Cells were then washed and stained with anti-rabbit or mouse secondary antibodies conjugated with Alexa 647 (Invitrogen) for 30 min, followed by analysis on FACSCalibur.

In the case of `Cc1ccc2c(c1)C(=O)C1(O)CCN(c3ccccc3)C1=N2` (racemic) [blebbistatin, (±)-blebbistatin], the “NMM-IIA mRNA lower in drug-treated CD34+ cells” value [1] is reported as roughly 30%, the “reduction of cyclin D1 and D3 (CCND1 and 3) expression” value [1] is reported as 2 fold and the “SCF receptor (KIT) expression vs untreated CD34+ cells” value ([1]; treated CD34+ cells) is reported as 1.8 fold. For the same molecule, the “upregulation of CD133 (PROM1) and CD34 above pooled average” value ([1]; treated CD34+ cells in culture) was “more than 2 fold”, the “in vitro platelets per CD41+ cell vs untreated MKs” value [2] was 2.5 fold and the “cells showing reversal of cytokinesis” value [3] was roughly 80%. The “human plts per transplanted CD41+ cell vs untreated” value ([4]; Phase-I and Phase-II of circulation) was “about 4 fold”, the plt half-life ([4]; Phase-II decay, regardless of drug treatment) was roughly 37 h and the “in vivo human platelets per transplanted CD41+ cell vs untreated” value ([4]; cells treated ex vivo 3 d, day 3 posttransplant) was “about fourfold”. For the same molecule, the increase in apoptosis [5] was “about 2 fold”.
